In US7342014B2, “Diamine derivatives” (Daiichi Pharmaceutical Co., Ltd., priority 2001, dated 2008):
Structures can show the parent of a compound that is named as a salt.

## COCCN1CC[C@H](NC(=O)c2cc3cc(Cl)ccc3[nH]2)[C@H](NC(=O)c2nc3c(s2)CN(C)CC3)C1 (relative stereo) (as salt: hydrochloride)
  melting point: 238 to 242 °C (dec.)

## COC1CC(C(=O)N2CC[C@H](NC(=O)c3cc4cc(Cl)ccc4[nH]3)[C@H](NC(=O)c3nc4c(s3)CN(C)CC4)C2)C1 (relative stereo) (as salt: hydrochloride)
  melting point: 191 °C (dec.)

## CN1CCc2nc(C(=O)N[C@@H]3CN(C(=O)c4ccccc4)CC[C@@H]3NC(=O)c3cc4cc(Cl)ccc4[nH]3)sc2C1 (relative stereo) (as salt: hydrochloride) [Example 154, N-((3R*,4S*)-1-benzoyl-4-{[(5-Chloroindol-2-yl)carbonyl]amino}piperidin-3-yl]-5-methyl-4,5,6,7-tetrahydrothiazolo[5,4-c]pyridine-2-carboxamide hydrochloride]
  melting point: 215 to 225 °C (dec.)

## CN1CCc2nc(C(=O)N[C@@H]3CN(C(=O)C(C)(C)CO)CC[C@@H]3NC(=O)c3cc4cc(Cl)ccc4[nH]3)sc2C1 (relative stereo) [Example 146, N-[(3R*,4S*)-4-{[(5-chloroindol-2-yl)carbonyl]amino}-1-(3-hydroxy-2,2-dimethylpropanoyl)piperidin-3-yl)-5-methyl-4,5,6,7-tetrahydrothiazolo[5,4-c]pyridine-2-carboxamide]
  melting point: 220 °C (dec.)

## CC(C)N1CCc2nc(C(=O)N[C@@H]3CN(S(C)(=O)=O)C[C@H]3NC(=O)c3cc4cc(Cl)ccc4[nH]3)sc2C1 (as salt: hydrochloride)
  melting point: 230 to 235 °C (dec.)

## CN1CCc2nc(C(=O)N[C@@H]3CNCC[C@@H]3NC(=O)c3cc4cc(F)ccc4[nH]3)sc2C1 (relative stereo) (as salt: hydrochloride) [Example 122, N-((3R*,4S*)-4-{[(5-Fluoroindol-2-yl)carbonyl]amino}-piperidin-3-yl)-5-methyl-4,5,6,7-tetrahydrothiazolo[5,4-c]pyridine-2-carboxamide dihydrochloride]
  melting point: 236 to 245 °C (dec.)

## CC(=O)N1CC[C@@H](NC(=O)c2nc3c(s2)CN(C)CC3)[C@@H](NC(=O)c2cc3cc(Cl)ccc3[nH]2)C1 (relative stereo) (as salt: hydrochloride) [Example 124, N-((3R*,4S*)-1-Acetyl-3-{[(5-chloroindol-2-yl)carbonyl]-amino}piperidin-4-yl)-5-methyl-4,5,6,7-tetrahydro-thiazolo[5,4-c]pyridine-2-carboxamide hydrochloride]
  melting point: 225 to 250 °C (dec.)

## COCC(C)(C)C(=O)N1CC[C@H](NC(=O)c2cc3cc(Cl)ccc3[nH]2)[C@H](NC(=O)c2nc3c(s2)CN(C)CC3)C1 (relative stereo) [Example 147, N-[(3R*,4S*)-4-{[(5-chloroindol-2-yl)carbonyl]amino}-1-(3-methoxy-2,2-dimethylpropanoyl)piperidin-3-yl)-5-methyl-4,5,6,7-tetrahydrothiazolo[5,4-c]pyridine-2-carboxamide]
  melting point: 240 °C (dec.)

## CN1CCc2nc(C(=O)N[C@@H]3CN(S(C)(=O)=O)CC[C@@H]3NC(=O)c3cc4cc(F)ccc4[nH]3)sc2C1 (relative stereo) (as salt: hydrochloride) [Example 128]
  melting point: 216 to 250 °C (dec.)

## COCC(COC)C(=O)N1CC[C@H](NC(=O)c2cc3cc(Cl)ccc3[nH]2)[C@H](NC(=O)c2nc3c(s2)CN(C)CC3)C1 (relative stereo) (as salt: hydrochloride) [Example 152, N-{(3R*,4S*)-4-{[(5-Chloroindol-2-yl)carbonyl]amino}-1-[3-methoxy-2-(methoxymethyl)propanoyl]piperidin-3-yl]-5-methyl-4,5,6,7-tetrahydrothiazolo[5,4-c]pyridine-2-carboxamide hydrochloride]
  melting point: 178 to 184 °C (dec.)

## CN1CCc2nc(C(=O)N[C@@H]3CS(=O)(=O)CC[C@@H]3NC(=O)c3cc4cc(F)ccc4[nH]3)sc2C1 (relative stereo) (as salt: hydrochloride) [Example 179, N-((3R*,4R*)-4-{[(5-Fluoroindol-2-yl)carbonyl]amino}-1,1-dioxohexahydro-1-thiopyran-3-yl)-5-methyl-4,5,6,7-tetrahydrothiazolo[5,4-c]pyridine-2-carboxamide hydrochloride]
  melting point: 243 to 245 °C

## CN1CCc2nc(C(=O)N[C@@H]3CN(C(=O)C(C)(C)C)CC[C@@H]3NC(=O)c3cc4cc(Cl)ccc4[nH]3)sc2C1 (relative stereo) (as salt: hydrochloride)
  melting point: 250 to 255 °C (dec.)

## COCC(=O)N1CC[C@H](NC(=O)c2cc3cc(Cl)ccc3[nH]2)[C@H](NC(=O)c2nc3c(s2)CN(C)CC3)C1 (relative stereo) (as salt: hydrochloride) [Example 143, N-[(3R*,4S*)-4-{[(5-Chloroindol-2-yl)carbonyl]amino}-1-(2-methoxyacetyl)piperidin-3-yl]-5-methyl-4,5,6,7-tetrahydro-thiazolo[5,4-c]pyridine-2-carboxamide hydrochloride]
  melting point: 214 to 228 °C (dec.)

## CN1CCc2nc(C(=O)N[C@@H]3CN(C(=O)C(F)(F)F)CC[C@@H]3NC(=O)c3cc4cc(Cl)ccc4[nH]3)sc2C1 (relative stereo) (as salt: hydrochloride) [Example 137, N-[(3R*,4S*)-4-{[(5-Chloroindol-2-yl)carbonyl]amino}-1-(2,2,2-trifluoroacetyl)piperidin-3-yl]-5-methyl-4,5,6,7-tetrahydrothiazolo[5,4-c]pyridine-2-carboxamide hydrochloride]
  melting point: 262 to 267 °C (dec.)

## CCC(=O)N1CC[C@H](NC(=O)c2cc3cc(Cl)ccc3[nH]2)[C@H](NC(=O)c2nc3c(s2)CN(C)CC3)C1 (relative stereo) (as salt: hydrochloride) [Example 133, N-((3R*,4S*)-4-{[(5-Chloroindol-2-yl)carbonyl]amino}-1-propionylpiperidin-3-yl)-5-methyl-4,5,6,7-tetrahydro-thiazolo[5,4-c]pyridine-2-carboxamide hydrochloride]
  melting point: 214 to 228 °C (dec.)

## CN1CCc2nc(C(=O)N[C@@H]3CN(C(=O)C4CC4)CC[C@@H]3NC(=O)c3cc4cc(Cl)ccc4[nH]3)sc2C1 (relative stereo) (as salt: hydrochloride) [Example 138, N-[(3R*,4S*)-4-{[(5-Chloroindol-2-yl)carbonyl]amino}-1-(cyclopropylcarbonyl)piperidin-3-yl]-5-methyl-4,5,6,7-tetrahydrothiazolo[5,4-c]pyridine-2-carboxamide hydrochloride]
  melting point: 280 to 286 °C (dec.)

## CN1CCc2nc(C(=O)N[C@@H]3CCN(C(=O)OC(C)(C)C)C[C@@H]3NC(=O)c3cc4cc(Cl)ccc4[nH]3)sc2C1 (relative stereo) [Example 119, tert-Butyl (3R*,4S*)-3-{[(5-chloroindol-2-yl)carbonyl]-amino}-4-{[(5-methyl-4,5,6,7-tetrahydrothiazolo[5,4-c]-pyridin-2-yl)carbonyl]amino}piperidine-1-carboxylate]
  melting point: 187 to 189 °C (dec.)

## CCNC(=O)N1CC[C@H](NC(=O)c2cc3cc(Cl)ccc3[nH]2)[C@H](NC(=O)c2nc3c(s2)CN(C)CC3)C1 (relative stereo) (as salt: hydrochloride)
  melting point: 221 to 235 °C (dec.)
